# Assays:
# male mice = format: in vivo; conditions: intravenous; 10 male mice; up and down method
# β-adrenergic receptor = β-adrenergic receptor blocking activity in open chest dog; format: in vivo; conditions: relative to propranolol = 1, pentbarbital-anesthetized open chest dog; for β-adrenergic receptor blocking activity in open chest dog (propranolol = 1), DDE: depressive effect on depressor effect (DDE) induced by intravenous isoproternol; for β-adrenergic receptor blocking activity in open chest dog (propranolol = 1), DPC: depressive effect on positive chronotropic (DPC) effect induced by intravenous isoproternol; for β-adrenergic receptor blocking activity in open chest dog (propranolol = 1), DPI: depressive effect on positive inotropic (DPI) effect induced by intravenous isoproternol
# Experimental: Note: A determination of β-adrenergic receptor blocking activity of test compounds in open chest dog was as follows. Thus dogs were anesthetized with pentbarbital sodium (administrated 30 - 40 mg./kg. intraveneously). Heart rate, myocardial contractile force and blood pressure were recorded with NIHON KODEN RM-150 polygraph. A depressive effect of test compounds on positive chronotropic (DPC), positive inotropic (DPI) and depressor effect (DDE) induced by isoproternol, which was injected intraveneously at a quarter interval, was determined.
Structure (SMILES),Acute toxicity LD50 (male mice),"β-adrenergic receptor blocking activity in open chest dog (propranolol = 1), DDE (β-adrenergic receptor)","β-adrenergic receptor blocking activity in open chest dog (propranolol = 1), DPC (β-adrenergic receptor)","β-adrenergic receptor blocking activity in open chest dog (propranolol = 1), DPI (β-adrenergic receptor)"
"CC(C)(C)NCC(O)CSc1nc(-c2ccc(C(N)=O)s2)cs1 (stereo not shown) [Example 37, 2-(3'-t-butylamino-2'-hydroxypropylthio)-4-(5'-carbamoyl-2'-thienyl)thiazole]",86 mg/kg,8,15,15
"CC(=O)Nc1ccc(OCC(O)CNC(C)C)cc1 (stereo not shown) [Practolol, reference compound]",,0.08,0.5,0.7
